Assays:
[1] = target: HCV NS3 protease domain genotype 1b (Hepatitis C virus genotype 1b (isolate Con1), UniProt Q9WMX2, E1202G); assay: Ki determination, NS3 protease genotype 1b (fluorogenic depsipeptide substrate); assay type: biochemical; settings: 50 pM enzyme, NS4A peptide
Experimental: Purified NS3 protease domain (amino acids 1-181) of the genotype 1b and 3a virus were generated as above.
Reactions were run at room temperature in buffer consisting of 50 mM HEPES, 40% glycerol, 0.05% Triton X-100, 10 mM DTT, and 10% DMSO. The final assay solutions contained 50 pM NS3 genotype 1 b protease or 200 pM genotype 3a protease, 20 μM NS4A peptide, and 4 μM substrate (genotype 1b) or 2 μM substrate (genotype 3a). Inhibitor concentrations varied from 100 nM to 5 pM in 3-fold dilutions, and no-inhibitor controls were included.
Compound dilutions were made in DMSO at 20× final concentration. Reaction mixtures were prepared in 96-well assay plates. A solution of enzyme and NS4A peptide in assay buffer (25 μL volume with both reagents at 4× final concentration) was mixed with 45 μL assay buffer and 5 μL of either inhibitor or DMSO, and pre-incubated at room temperature for 1 hour. The reaction was started by addition of 25 μL substrate solution at 4× final concentration. Plates were mixed vigorously for 5-10 seconds and reactions were allowed to proceed for 90 minutes, fluorescence was measured every 30 s between 90 and 120 minutes reaction time using a Tecan InfiniTe M1000 or PerkinElmer Envision multimode plate reader with an excitation wavelength of 340 nm and an emission wavelength of 490 nm.
To determine the Ki, rates were plotted as a function of inhibitor concentration, and the data were fit with equation 1 (Morrison, J. F., Biochimica et Biophysica Acta 1969, 185, 269-286) to calculate Ki^app using GraphPad Prism 5. […] Ki was calculated from Ki^app/(1+[[S]/Km]).

[2] = target: HCV NS3 protease domain genotype 3a (Hepatitis C virus genotype 3a, UniProt Q81258); assay: Ki determination, NS3 protease genotype 3a (fluorogenic depsipeptide substrate); assay type: biochemical; settings: 200 pM enzyme, NS4A peptide
Sequence of HCV NS3 protease domain genotype 3a (Q81258 whole entry, looked up, the tested form may be a part): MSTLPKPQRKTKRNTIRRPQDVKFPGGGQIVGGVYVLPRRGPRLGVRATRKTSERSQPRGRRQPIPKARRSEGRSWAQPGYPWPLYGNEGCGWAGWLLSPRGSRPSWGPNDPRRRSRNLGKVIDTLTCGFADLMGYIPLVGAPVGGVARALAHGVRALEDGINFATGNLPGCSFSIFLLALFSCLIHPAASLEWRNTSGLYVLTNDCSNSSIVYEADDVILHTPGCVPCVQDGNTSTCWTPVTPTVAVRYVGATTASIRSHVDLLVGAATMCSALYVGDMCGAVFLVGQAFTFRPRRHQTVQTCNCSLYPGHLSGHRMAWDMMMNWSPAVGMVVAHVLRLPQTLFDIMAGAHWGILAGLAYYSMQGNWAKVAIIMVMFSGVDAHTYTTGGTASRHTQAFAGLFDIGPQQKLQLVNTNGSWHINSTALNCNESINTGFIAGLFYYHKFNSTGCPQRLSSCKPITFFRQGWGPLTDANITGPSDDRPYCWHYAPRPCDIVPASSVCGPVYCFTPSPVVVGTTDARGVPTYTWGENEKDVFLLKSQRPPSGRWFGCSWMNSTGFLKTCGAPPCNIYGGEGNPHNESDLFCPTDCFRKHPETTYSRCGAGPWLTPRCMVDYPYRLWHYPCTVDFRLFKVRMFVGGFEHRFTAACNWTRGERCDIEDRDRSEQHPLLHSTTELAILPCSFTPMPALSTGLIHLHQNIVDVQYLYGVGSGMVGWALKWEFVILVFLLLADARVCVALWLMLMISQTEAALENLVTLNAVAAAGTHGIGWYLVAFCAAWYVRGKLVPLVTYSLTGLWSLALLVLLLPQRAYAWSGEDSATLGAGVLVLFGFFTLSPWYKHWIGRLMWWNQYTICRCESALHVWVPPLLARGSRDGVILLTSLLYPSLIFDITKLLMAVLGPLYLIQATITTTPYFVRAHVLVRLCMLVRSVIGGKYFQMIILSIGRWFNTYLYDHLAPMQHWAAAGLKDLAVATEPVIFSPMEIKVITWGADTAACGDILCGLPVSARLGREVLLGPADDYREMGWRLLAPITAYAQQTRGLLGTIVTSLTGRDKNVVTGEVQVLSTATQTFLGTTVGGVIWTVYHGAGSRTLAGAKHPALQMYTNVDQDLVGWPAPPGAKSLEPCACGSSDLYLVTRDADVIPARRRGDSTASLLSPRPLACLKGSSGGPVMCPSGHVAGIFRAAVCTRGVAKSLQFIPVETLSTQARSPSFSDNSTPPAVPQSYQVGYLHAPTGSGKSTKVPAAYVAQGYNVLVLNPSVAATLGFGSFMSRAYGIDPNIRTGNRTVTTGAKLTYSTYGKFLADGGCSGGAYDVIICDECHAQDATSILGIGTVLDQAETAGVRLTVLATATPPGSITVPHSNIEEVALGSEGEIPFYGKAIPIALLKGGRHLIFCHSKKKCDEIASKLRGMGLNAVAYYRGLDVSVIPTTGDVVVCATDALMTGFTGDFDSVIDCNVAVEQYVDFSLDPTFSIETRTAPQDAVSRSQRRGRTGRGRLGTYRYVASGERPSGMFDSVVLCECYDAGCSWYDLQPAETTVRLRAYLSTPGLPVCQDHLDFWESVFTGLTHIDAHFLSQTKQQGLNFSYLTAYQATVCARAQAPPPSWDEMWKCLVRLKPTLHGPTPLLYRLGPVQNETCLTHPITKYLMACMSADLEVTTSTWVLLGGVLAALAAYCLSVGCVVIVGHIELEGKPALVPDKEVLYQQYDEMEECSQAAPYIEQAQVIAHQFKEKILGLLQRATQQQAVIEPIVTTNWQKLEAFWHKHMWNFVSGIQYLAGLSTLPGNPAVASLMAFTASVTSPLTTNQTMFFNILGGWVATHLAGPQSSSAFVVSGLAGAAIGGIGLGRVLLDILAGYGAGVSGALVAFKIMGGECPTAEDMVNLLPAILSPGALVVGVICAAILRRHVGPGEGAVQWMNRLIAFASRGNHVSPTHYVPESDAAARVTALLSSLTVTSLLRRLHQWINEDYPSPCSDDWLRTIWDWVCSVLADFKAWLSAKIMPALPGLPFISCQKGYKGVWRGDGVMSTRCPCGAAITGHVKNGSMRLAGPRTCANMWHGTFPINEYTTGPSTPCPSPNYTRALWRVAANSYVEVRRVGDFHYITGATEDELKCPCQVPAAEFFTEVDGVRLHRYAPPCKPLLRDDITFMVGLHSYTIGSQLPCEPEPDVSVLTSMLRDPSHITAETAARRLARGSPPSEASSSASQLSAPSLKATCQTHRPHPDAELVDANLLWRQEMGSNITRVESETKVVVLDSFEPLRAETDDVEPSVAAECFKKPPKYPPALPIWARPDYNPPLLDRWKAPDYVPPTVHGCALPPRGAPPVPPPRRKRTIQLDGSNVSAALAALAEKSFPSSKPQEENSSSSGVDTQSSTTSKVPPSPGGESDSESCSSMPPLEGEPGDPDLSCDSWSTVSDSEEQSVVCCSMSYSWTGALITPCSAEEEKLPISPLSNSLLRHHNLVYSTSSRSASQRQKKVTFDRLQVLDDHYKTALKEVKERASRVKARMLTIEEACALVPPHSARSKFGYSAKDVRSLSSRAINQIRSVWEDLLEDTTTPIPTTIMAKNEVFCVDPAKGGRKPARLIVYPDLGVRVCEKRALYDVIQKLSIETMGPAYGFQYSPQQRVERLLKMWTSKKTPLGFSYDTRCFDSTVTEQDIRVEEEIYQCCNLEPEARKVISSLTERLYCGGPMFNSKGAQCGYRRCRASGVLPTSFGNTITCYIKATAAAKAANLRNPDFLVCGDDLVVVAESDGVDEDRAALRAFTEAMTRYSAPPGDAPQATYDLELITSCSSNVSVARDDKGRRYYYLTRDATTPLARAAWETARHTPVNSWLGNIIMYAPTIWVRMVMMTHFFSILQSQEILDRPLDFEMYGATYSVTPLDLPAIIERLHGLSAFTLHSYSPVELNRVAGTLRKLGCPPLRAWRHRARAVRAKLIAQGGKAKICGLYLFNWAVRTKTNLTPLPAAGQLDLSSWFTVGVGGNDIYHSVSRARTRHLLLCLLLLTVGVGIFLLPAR
In short: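 The NS3 protease domain (aa 1-181) with 20 μM NS4A peptide was used at 50 pM with 4 μM substrate (1b) or at 200 pM with 2 μM substrate (3a). Inhibitors (100 nM-5 pM) were pre-incubated 1 h at room temperature in HEPES/glycerol/DTT buffer with 10% DMSO. Steady-state rates (90-120 min) gave Ki via the Morrison equation, corrected for active enzyme and [S]/Km.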

[3] = test system: genotype 1a (H77) stable HCV replicon in Huh-7-derived cells; assay: Stable subgenomic HCV replicon EC50, genotype 1a (Renilla luciferase); assay type: cell-based, hepatitis C virus; settings: Hepatitis C virus, stable replicon genotype 1a, 72 h, read-out: EC50 1A RLUC
In short: (§1)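 Compounds, three-fold diluted, were applied to Huh-7-derived cells harbouring luciferase replicons (genotype 1a H77, 1b Con1, 2a JFH-1, 4a ED43, with strain-specific adaptive mutations). Seventy-two hours later, intracellular replication was gauged by Renilla luciferase activity and EC50 derived by regression.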

[4] = test system: genotype 1b (Con1) stable HCV replicon in Huh-7-derived cells; assay: Stable subgenomic HCV replicon EC50, genotype 1b (Renilla luciferase); assay type: cell-based, hepatitis C virus; settings: Hepatitis C virus, stable replicon genotype 1b, 72 h, read-out: EC50 1B RLUC
In short: as §1

[5] = test system: genotype 2a (JFH-1) stable HCV replicon in Huh-7-derived cells; assay: Stable subgenomic HCV replicon EC50, genotype 2a (Renilla luciferase); assay type: cell-based, hepatitis C virus; settings: Hepatitis C virus, stable replicon genotype 2a, 72 h, read-out: EC50 2A RLUC
In short: as §1

[6] = test system: genotype 3a (S52) stable HCV replicon in Huh-7-derived cells; assay: Stable subgenomic HCV replicon EC50, genotype 3a (Renilla luciferase); assay type: cell-based, hepatitis C virus; settings: Hepatitis C virus, 72 h, read-out: EC50 3A RLUC
[7] = test system: genotype 4a (ED43) stable HCV replicon in Huh-7-derived cells; assay: Stable subgenomic HCV replicon EC50, genotype 4a (Renilla luciferase); assay type: cell-based, hepatitis C virus; settings: Hepatitis C virus, 72 h, read-out: EC50 4A RLUC
In short: as §1

[8] = test system: genotype 3a (S52) wild type transient HCV replicon in Huh-7-derived cells; assay: Transient-transfected HCV replicon EC50, genotype 3a wild type; assay type: cell-based, hepatitis C virus; settings: Hepatitis C virus; transient-transfected replicon genotype 3a wild type, 72 h; read-out: EC50 3A WT
[9] = test system: genotype 1a (H77) wild type transient HCV replicon in Huh-7-derived cells; assay: Transient-transfected HCV replicon EC50, genotype 1a wild type; assay type: cell-based, hepatitis C virus; settings: Hepatitis C virus, 72 h, transient-transfected replicon genotype 1a wild type, read-out: EC50 1A WT
[10] = test system: genotype 1a NS3/4a protease inhibitor resistant variant R155K transient HCV replicon in Huh-7-derived cells; assay: Transient-transfected HCV replicon EC50, genotype 1a R155K; assay type: cell-based, hepatitis C virus; settings: Hepatitis C virus, 72 h, read-out: EC50 1A R155K, transient-transfected replicon genotype 1a R155K resistant variant, 72 h
[11] = test system: genotype 1b (Con1) wild type transient HCV replicon in Huh-7-derived cells; assay: Transient-transfected HCV replicon EC50, genotype 1b wild type; assay type: cell-based, hepatitis C virus; settings: Hepatitis C virus, 72 h, transient-transfected replicon genotype 1b wild type, read-out: EC50 1B WT
[12] = test system: genotype 1b NS3/4a protease inhibitor resistant variant D168A transient HCV replicon in Huh-7-derived cells; assay: Transient-transfected HCV replicon EC50, genotype 1b D168A; assay type: cell-based, hepatitis C virus; settings: Hepatitis C virus, 72 h, read-out: EC50 1B D168A, transient-transfected replicon genotype 1b D168A resistant variant, 72 h

Sequence of HCV NS3 protease domain genotype 1b (Q9WMX2 1027-1208 E1202G): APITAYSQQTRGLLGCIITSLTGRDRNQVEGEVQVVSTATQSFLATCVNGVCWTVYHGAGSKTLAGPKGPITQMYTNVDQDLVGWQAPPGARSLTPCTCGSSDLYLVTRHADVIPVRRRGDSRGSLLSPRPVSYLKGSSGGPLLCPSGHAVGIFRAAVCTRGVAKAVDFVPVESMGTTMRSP

SMILES	Ki [1] [nM]	Ki [2] [nM]	EC50 [3] [nM]	EC50 [4] [nM]	EC50 [5] [nM]	EC50 [6] [nM]	EC50 [7] [nM]	EC50 [8] [nM]	EC50 [9] [nM]	EC50 [10] [nM]	EC50 [11] [nM]	EC50 [12] [nM]
COc1ccc2nc3c(nc2c1)O[C@H]1CN(C(=O)[C@H](C(C)(C)C)NC(=O)O[C@@H]2C[C@@H]4C[C@@H]4[C@H]2CCCCC3(F)F)[C@H](C(=O)N[C@]2(C(=O)NS(=O)(=O)C3CC3)C[C@H]2C(F)F)[C@@H]1C [Example 62, (1aS,2aR,6S,9S,10S,11R,23aR,23bS)-6-tert-butyl-N-[(1R,2R)-1-[(cyclopropylsulfonyl)carbamoyl]-2-(difluoromethyl)cyclopropyl]-19,19-difluoro-15-methoxy-10-methyl-4,7-dioxo-1a,2,2a,4,5,6,7,10,11,19,20,21,22,23,23a,23b-hexadecahydro-1H,9H-8,11-methanocyclopropa[4′,5′]cyclopenta[1′,2′:18,19][1,10,3,6]dioxadiazacyclononadecino[11,12-b]quinoxaline-9-carboxamide]	0.04	0.03	3.4	3	5	8.5	2.4	4	3.5	2.7	1.5	2
CC[C@@H]1[C@@H]2CN(C(=O)[C@H](C(C)(C)C)NC(=O)O[C@@H]3C[C@H]3CCCCC(F)(F)c3nc4ccc(OC(F)(F)F)cc4nc3O2)[C@@H]1C(=O)N[C@]1(C(=O)NS(=O)(=O)C2(C)CC2)C[C@H]1C(F)F [Example 83, (1aR,5S,8S,9S,10R,22aR)-5-tert-butyl-N-[(1R,2R)-2-(difluoromethyl)-1-{[(1-methylcyclopropyl)sulfonyl]carbamoyl}cyclopropyl]-9-ethyl-18,18-difluoro-3,6-dioxo-14-(trifluoromethoxy)-1,1a,3,4,5,6,9,10,18,19,20,21,22,22a-tetradecahydro-8H-7,10-methanocyclopropa[18,19][1,10,3,6]dioxadiazacyclononadecino[11,12-b]quinoxaline-8-carboxamide]	0.09	0.48	62	58	19	1220	42	300	62	133	27	202
CC[C@@H]1[C@@H]2CN(C(=O)[C@H](C(C)(C)C)NC(=O)O[C@@H]3C[C@@H]4C[C@@H]4[C@H]3CCCCCc3nc4ccc(OC)cc4nc3O2)[C@@H]1C(=O)N[C@]1(C(=O)NS(=O)(=O)C2CC2)C[C@H]1C(F)F [Example 70, (1aS,2aR,6S,9S,10S,11R,23aR,23bS)-6-tert-butyl-N-[(1R,2R)-1-[(cyclopropylsulfonyl)carbamoyl]-2-(difluoromethyl)cyclopropyl]-10-ethyl-15-methoxy-4,7-dioxo-1a,2,2a,4,5,6,7,10,11,19,20,21,22,23,23a,23b-hexadecahydro-1H,9H-8,11-methanocyclopropa[4′,5′]cyclopenta[1′,2′:18,19][1,10,3,6]dioxadiazacyclononadecino[11,12-b]quinoxaline-9-carboxamide]	0.05	0.05	8.4	8.5	15	41	6.4	17	7.7	5.4	6.1	7.3
CCC[C@@H]1[C@@H]2CN(C(=O)[C@H](C(C)(C)C)NC(=O)O[C@@H]3C[C@H]3CCCCC(F)(F)c3nc4ccc(OC)cc4nc3O2)[C@@H]1C(=O)N[C@]1(C(=O)NS(=O)(=O)C2CC2)C[C@H]1C(F)F [Example 60, (1aR,5S,8S,9S,10R,22aR)-5-tert-butyl-N-[(1R,2R)-1-[(cyclopropylsulfonyl)carbamoyl]-2-(difluoromethyl)cyclopropyl]-18,18-difluoro-14-methoxy-3,6-dioxo-9-propyl-1,1a,3,4,5,6,9,10,18,19,20,21,22,22a-tetradecahydro-8H-7,10-methanocyclopropa[18,19][1,10,3,6]dioxadiazacyclononadecino[11,12-b]quinoxaline-8-carboxamide]	0.04	0.08	11	4.8	7.7	45	5.4	9.8	5.8	8.6	2.3	15
C[C@@H]1[C@@H]2CN(C(=O)[C@H](C(C)(C)C)NC(=O)O[C@@H]3C[C@@H]4C[C@@H]4[C@H]3CCCCCc3nc4ccc(F)cc4nc3O2)[C@@H]1C(=O)N[C@]1(C(=O)NS(=O)(=O)C2(C)CC2)C[C@H]1C(F)F [Example 86, (1aS,2aR,6S,9S,10S,11R,23aR,23bS)-6-tert-butyl-N-[(1R,2R)-2-(difluoromethyl)-1-{[(1-methylcyclopropyl)sulfonyl]carbamoyl}cyclopropyl]-15-fluoro-10-methyl-4,7-dioxo-1a,2,2a,4,5,6,7,10,11,19,20,21,22,23,23a,23b-hexadecahydro-1H,9H-8,11-methanocyclopropa[4′,5′]cyclopenta[1′,2′:18,19][1,10,3,6]dioxadiazacyclononadecino[11,12-b]quinoxaline-9-carboxamide]	0.04	0.07	5.6	5.5	5.9	42	5.7	16	4	3.7	3.4	10
CC[C@@H]1[C@@H]2CN(C(=O)[C@H](C(C)(C)C)NC(=O)O[C@@H]3C[C@H]3CCCCCc3nc4ccc(OCC(F)(F)F)cc4nc3O2)[C@@H]1C(=O)N[C@]1(C(=O)NS(=O)(=O)C2(C)CC2)C[C@H]1C(F)F [Example 55, (1aR,5S,8S,9S,10R,22aR)-5-tert-butyl-N-[(1R,2R)-2-(difluoromethyl)-1-{[(1-methylcyclopropyl)sulfonyl]carbamoyl}cyclopropyl]-9-ethyl-3,6-dioxo-14-(2,2,2-trifluoroethoxy)-1,1a,3,4,5,6,9,10,18,19,20,21,22,22a-tetradecahydro-8H-7,10-methanocyclopropa[18,19][1,10,3,6]dioxadiazacyclononadecino[11,12-b]quinoxaline-8-carboxamide]	0.09	0.2	13	3.8	12	140	3.5	71	8	32	2.3	53
